Results from US8062678B2, “Extractive of Piper laetispicum C.DC., its process and its uses” (priority 2004, dated 2011).

Key:
[1] = tested on: rat brain synaptosome (re)uptake of noradrenaline (3H-NA); experiment: Inhibition of brain synaptosome uptake of noradrenaline; type: biochemical; conditions: positive control drug 0.1 mM; 3H-NA 300 nM, 37° C.; lower CPM = more inhibition
Description: 10 μl of substrate (^3H-5HT, ^3H-NA or ^3H-DA; final reaction concentration: 300 nM) is added in a 4° C. environment and is thoroughly mixed, and the tubes are placed in a 37° C. water bath for a warm bath for 5 minutes. After that, precooled Tris-Krebs buffer is added into each tube to terminate reaction, and the multichannel cell harvestor is immediately used for sucking filtration through fiberglass filter membrane, and the same solution in the same volume is used to wash tubes and filter. The filter membrane is removed and oven dried. The filter membrane is placed in the scintillation vial, methylbenzene scintillation fluid is added, and counting is performed with the β-liquid scintillation counter.

mouse [2] = experiment: Mouse swimming test; type: in vivo; conditions: 30 mg/kg/d intragastric, 14 days, within 4 minutes, x ± s, n = 10
Description: The despair test as put forth by Porsolt et al can serve as the evaluation model for the effects of antidepressant drugs. In this model, a mouse or a rat is placed in a limited and inescapable space for swimming, and the animal can be induced to have motionless status. Such status is a reflection of the animal's despair, and the status can be inhibited by some effective antidepressant drugs.
One (1) hour after the drug is administered on Day 14, the animal is placed into a 10×20 cm glass cylinder with water depth at 8˜10 cm and water temperature at 22˜24° C. Beginning from the 2nd minute, the accumulated time of motionless status within 4 minutes is recorded, and the results are as shown in Table 7.

MAO-B in mouse brain = target: T1, MAO-B in mouse brain (Mus musculus, UniProt Q8BW75); experiment: Inhibition of monoamine oxidase B in the brains of mice; type: in vivo; conditions: 25 mg/kg; mouse brain after 14 days; x ± SD, n = 10
T1 construct: from tissue; host or cells: mouse brain
T1 sequence (Q8BW75 1-520): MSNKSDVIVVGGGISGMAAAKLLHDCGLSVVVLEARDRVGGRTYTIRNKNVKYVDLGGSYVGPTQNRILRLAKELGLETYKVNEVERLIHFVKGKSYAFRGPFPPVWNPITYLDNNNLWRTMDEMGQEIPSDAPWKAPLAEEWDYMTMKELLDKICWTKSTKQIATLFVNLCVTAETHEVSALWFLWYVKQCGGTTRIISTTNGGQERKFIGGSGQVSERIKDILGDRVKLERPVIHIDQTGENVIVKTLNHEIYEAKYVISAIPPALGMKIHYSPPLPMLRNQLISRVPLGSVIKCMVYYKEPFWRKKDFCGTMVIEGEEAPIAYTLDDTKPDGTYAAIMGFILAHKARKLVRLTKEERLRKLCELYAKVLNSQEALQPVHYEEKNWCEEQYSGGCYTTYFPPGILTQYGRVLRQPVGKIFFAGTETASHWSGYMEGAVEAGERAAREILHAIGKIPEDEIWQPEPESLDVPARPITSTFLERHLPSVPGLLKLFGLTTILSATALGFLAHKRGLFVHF
Excerpt: (§1) The biological function of monoamine oxidase (MAO) lies in its adjustment of the level for in vivo endogenous amines (noradrenaline, dopamine and 5-hydroxytryptamine) and exogenous amine substances. Based on its substrate and its inhibitor specificity, monoamine oxidase can be divided into two types (MAO-A and MAO-B). Dopamine and tyramine are two MAO substrates, 5-HT and noradrenaline are Type A substrates, while β-phenethylamine and benzylamine are Type B substrates, and iprazid and tranylcypromine are nonselective inhibitors for MAO.
(§2) The mice are randomized into groups, and based on Table 6, intragastric administration of the corresponding doses of test Drug A (Sample 1-1 in Case of Implementation 1) is performed for each of the groups, which are administered once a day consecutively for 14 days, and normal saline is used as a control at the same time, and the positive control is paxil. One (1) hour after the last administration, the animals are put to death through neck dislocation, and the brain is immediately taken for testing MAO activity.

[3] = tested on: rat brain synaptosome (re)uptake of dopamine (3H-DA); experiment: Inhibition of brain synaptosome uptake of dopamine; type: biochemical; conditions: positive control drug 1 mM; 3H-DA 300 nM, 37° C.; lower CPM = more inhibition
Excerpt: The physiological mechanism for the […] and dopaminergic functions is similar to that for 5-hydroxytryptamine. Clinically, there are many antidepressant drugs that can block the reuptake of noradrenaline and/or 5-hydroxytryptamine and/or dopamine.
First of all, the method of Whittaker et al (Whittaker V P & Barker L A. The subcellular tractionation of brain tissue with special reference to the preparation of synaptosomes and their component organelles. In: Fried R. ed. In Methods in Neurochemistry, Vol. New York: Marcel Dakker, Inc, 1972) is referred to for preparing brain synaptosome, and the specific procedures are: decapitate the rat and take out the cerebrum quickly, place it in precooled normal saline, and remove cerebral pia mater and vascular tissues. Take cerebral cortex, and place it in cold sugar solution. Use ultrasonic cell disruptor for producing homogenate and centrifuging to obtain refined brain synaptosome for future use. […]

MAO-A in mouse brain = target: T2, MAO-A in mouse brain (Mus musculus, UniProt Q64133); experiment: Inhibition of monoamine oxidase A in the brains of mice; type: in vivo; conditions: 25 mg/kg; mouse brain after 14 days; x ± SD, n = 10
T2 construct: from tissue; host or cells: mouse brain
T2 sequence (Q64133 1-526): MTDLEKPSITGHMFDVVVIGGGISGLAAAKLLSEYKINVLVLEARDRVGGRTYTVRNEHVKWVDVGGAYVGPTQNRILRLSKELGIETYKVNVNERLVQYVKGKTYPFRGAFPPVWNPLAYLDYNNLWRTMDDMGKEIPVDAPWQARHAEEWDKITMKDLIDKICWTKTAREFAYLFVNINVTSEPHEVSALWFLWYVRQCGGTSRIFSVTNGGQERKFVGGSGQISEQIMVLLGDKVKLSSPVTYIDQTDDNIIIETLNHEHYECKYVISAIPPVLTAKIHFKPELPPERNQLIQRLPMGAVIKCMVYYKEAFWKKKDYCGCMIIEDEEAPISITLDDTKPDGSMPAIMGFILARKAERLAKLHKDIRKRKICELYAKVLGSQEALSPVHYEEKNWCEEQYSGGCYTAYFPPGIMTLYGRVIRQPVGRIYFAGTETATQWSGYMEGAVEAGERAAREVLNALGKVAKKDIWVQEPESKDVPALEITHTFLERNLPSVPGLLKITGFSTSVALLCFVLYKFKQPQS
Excerpt: as §1, §2

mouse [4] = experiment: Anti-anxiety effect, mouse four board test; type: in vivo; conditions: 1 mg/kg/d; 30 minutes after drug; within 10 minutes; x ± s, n = 8
Description: The mice are randomized into groups, and are respectively given test drugs based on Table 10, namely Drug A (Sample 1-1 in Case of Implementation 1), B (Sample 10 in Case of Implementation 1), C (Sample 7 in Case of Implementation 1), F (Sample 9 in Case of Implementation 1) and G (Sample 11 in Case of Implementation 1), and normal saline is used as control, and positive control group is diazepam. The mouse is placed on the boards 30 minutes after the drug is administered, and is made to explore for 15 seconds. After that, whenever the mouse moves from one board to another board, one electric shock is given with amperage at 0.35 mA and duration time at 0.5 s. The mouse should present an obvious escape response because of this, and usually moves across 2 boards or 3 boards, if the mouse continues to run, no electric shock is given for […] thereafter.

mouse [5] = experiment: Analgesic effect, writhing test; type: in vivo; conditions: 50 mg/kg; benzoquinone i.p. 30 minutes after drug; within 10 minutes; x ± s, n = 10
Description: A chemical stimulant with definite solvents and at a definite concentration is injected into the abdominal cavity of the mouse to stimulate splanchnoderm and peritoneum parietale so as to cause deep, large-area and long-time inflammatory pain and result in behavioral reactions in the mouse such as concaving the abdomen, extending the trunk and back limbs and raising the buttocks, which are called the writhing response. […]
The mice are randomized into groups, and are respectively given test drugs based on Table 12, namely Drug A (Sample 1-1 in Case of Implementation 1), C (Sample 7 in Case of Implementation 1) and B (Sample 10 in Case of Implementation 1), and normal saline is used as control at the same time, and positive control group is acetyl salicylic acid. The mice are respectively injected intraperitoneally with 0.20 ml of 0.02% benzoquinone water solution 30 minutes later, and are immediately placed into a box with four sides sealed, and, beginning from the first occurrence of writhing responses in the mice, time is kept for 10 minutes, and the number of writhing responses in the mice is recorded within 10 minutes thereafter, and the results are as shown in Table 12.

mouse [6] = experiment: Mouse tail suspension test; type: in vivo; conditions: 50 mg/kg/d intragastric, 14 days, within 6 minutes, x ± s, n = 10
Excerpt: The tail suspension test is a simple and easy experimental method introduced by Stern et al in 1985 for evaluation of antidepressant drugs. […] Clinically effective antidepressant drugs can reduce the motionless time of the mouse after it cannot successfully escape through its efforts following being suspended at the tail.
The mice are randomized into groups, and each of the groups receives intragastric administration of the corresponding dose of Drag A (Sample 1-1 in Case of Implementation 1), B (Sample 10 in Case of Implementation 1), C (Sample 7 in Case of Implementation 1), D (Sample 3 in Case of Implementation 1) and E (Sample 5 in Case of Implementation 1), which is administered once a day consecutively for 14 days, and normal saline is used as control at the same time, and positive control is Venlafaxine. One (1) hour after the drug is administered for the last time, the mouse tail suspension test is performed, the duration is 6 minutes, and the stationary and motionless time within the 6 minutes is recorded, and the results are as shown in Table 9.

rat = experiment: Rat swimming test; type: in vivo; conditions: 30 mg/kg/d intragastric, 14 days, 5 minutes swimming, x ± s, n = 10
Description: After having fasted for 4 hours, the rats are placed in a 40×18 cm glass cylinder with water depth at 15 cm (water temperature at 25° C.) for swimming for 15 minutes, and are dried with a hot blower. Then, based on Table 8, the rats are randomized into 6 groups, and each of the groups receives intragastric administration of the corresponding dose of Drug A (Sample 1-1 in Case of Implementation 1) and B (Sample 10 in Case of Implementation 1), which is administered once a day consecutively for 14 days, and normal saline is used as control at the same time, and positive control is Venlafaxine. One (1) hour after the drug is administered for the last time, the rat swimming test begins, the swimming time is 5 minutes, and the motionless time during the 5 minutes for which they are swimming is recorded, and the results are as shown in Table 8.

CNCCCN1c2ccccc2CCc2ccccc21 [Desipramine]
Inhibition of Monoamine Uptake (CPM) Noradrenaline [1]: 1499 CPM

CNCCC(Oc1ccc(C(F)(F)F)cc1)c1ccccc1 (stereo not drawn) [Fluoxetine]
Accumulated Motionless Time (mouse [2]): 73.7 ± 17.2 s

Fc1ccc([C@@H]2CCNC[C@H]2COc2ccc3c(c2)OCO3)cc1 [Paxil]
MAO-B (OD) (MAO-B in mouse brain): 0.025 ± 0.008 OD | Inhibition of Monoamine Uptake (CPM) Dopamine [3]: 1197 CPM | MAO-A (OD) (MAO-A in mouse brain): 0.012 ± 0.005 OD

CN1C(=O)CN=C(c2ccccc2)c2cc(Cl)ccc21 [diazepam]
Accumulated Number of Electric Shocks (mouse [4]): 12.78 ± 2.05

CC(=O)Oc1ccccc1C(=O)O [acetyl salicylic acid]
Accumulated Number of Writhing Responses (mouse [5]): 9.89 ± 1.09

COc1ccc(C(CN(C)C)C2(O)CCCCC2)cc1 (stereo not drawn) [Venlafaxine]
Accumulated Motionless Time (mouse [6]): 57.5 ± 43.0 s | Accumulated Motionless Time (rat): 211.2 ± 24.7 s
